Reference: patent publication US7070780B2, “Treatment of demyelinating autoimmune disease with ordered peptides” (Board of Trustees of the Leland Stanford Junior University, priority 1999, dated 2006)
“Also recorded” adds a separate entry of the source.

Key:
[1] = tested on: anti-MBP antibodies; test: Inhibition of autoantibody binding to MBP (anti-MBP antibodies affinity-purified from CNS lesions); settings: anti-MBP antibodies from CNS lesions of 12 post-mortem cases
Description: Previously, we have compared the structural requirements for autoantibody recognition to those of T cell clones reactive to MBP p87–99. Anti-MBP antibodies were affinity-purified from CNS lesions of 12 post-mortem cases studied. The MBP p87–99 peptide was immunodominant in all cases and it inhibited autoantibody binding to MBP by more than 95%. Residues contributing to autoantibody binding were located in a 10-amino acid segment p86–95 ({SEQ ID NO:9} VVHFFKNIVT) that also contained the MHC-T cell receptor contact residues for T cells recognizing MBP in the context of DRB1*1501 and DQB1*0602. In the epitope center, the same residues, {SEQ ID NO:10} VHFFK, were important for T cell binding and MHC recognition. Recently, the crystal structure of HLA-DR2 with MBPp85–99 was solved, confirming the prediction that K91 is the major TCR contact residue, while F90 is a major anchor into the hydrophobic P4 pocket of the MHC molecule.

[2] = tested on: experimental autoimmune encephalomyelitis in Lewis rats; test: EAE treatment in Lewis rats immunized with MBPp85–99; format: in vivo; settings: EAE induced with MBPp85–99, single intraperitoneal dose of 0.5 mg peptide in PBS at disease onset
Method: FIG. 1 is a graph depicting the prevention of EAE in rats treated with ordered peptides. […] Animals were injected with an emulsion of 0.1 mg of MBPp85–99 in complete Freund's adjuvant for EAE induction. Ten days later, when the clinical manifestations of disease became apparent, a single intra-peritoneal dose of peptide {SEQ ID NO:4} EYYKEYYKEYYK (squares), {SEQ ID NO:5} KYYKYYKYYKYY (triangles), or PBS (circles)was administered. Results are expressed as mean disease score of groups of six animals.
Animals. Female Lewis rats (6–8 weeks old), were purchased from Harlan Sprague Dawley (Indianapolis, Ind.)
Peptides. For immunization and disease reversal, peptides were synthesized on a peptide synthesizer (model 9050: MilliGen, Burlington, Mass.) by standard 9-fluorenylmethoxycarbonyl chemistry. Peptides were purified by HPLC. Structure was confirmed by amino acid analysis and mass spectroscopy. Peptides used for the experiments were: {SEQ ID NO:11} ENPVVHFFKNIVTPR (MBPp85–99), {SEQ ID NO:4} EYYKEYYKEYYK, {SEQ ID NO:5} KYYKYYKYYKYY.
EAE Induction. […] Experimental animals were scored as follows: 0, no clinical disease; 1, tail weakness or paralysis; 2, hind limb weakness; 3, hind limb paralysis; 4, forelimb weakness or paralysis; 5, moribund or dead animal.
EAE Treatment. Rats previously immunized with MBPp85–99 for EAE induction were scored from day eight after peptide injection. […]

Row | Substance | inhibition of autoantibody binding to MBP [1] | effect on EAE (mean disease score) [2]
1 | MBP p87–99: peptide of residues 87–99 of myelin basic protein, immunodominant epitope (SRPHLIRLFSRDA; UniProt P02686 87-99, looked up, fragment) | more than 95% | –
2 | EYYKEYYKEYYK [ordered peptide of the repeated motif EYYK (n=3)] | – | prevents the development of EAE; also recorded: effective in preventing and treating experimental autoimmune encephalomyelitis
